Peptide text beside a SMILES is read from it.
Tested on: ZIKV strain MR766
Experiment: Post-infection peptide treatment of ZIKV-infected human fetal astrocytes (RT-PCR and plaque-forming assay)
Assay type: cell-based, Zika virus
Details: human fetal astrocytes infected MOI 0.5 for 24 h, then peptide 10 µM for 24 h, N = 4; for Zika virions after post-infection treatment (plaque-forming assay): cell-free supernatants; for ZIKV RNA after post-infection treatment, compared with untreated ZIKV group: normalized to GAPDH
Method: Vero cells were plated into 12-well plates at 5 (10^5 cells/well the day before infection). On the day of infection, the monolayers of Vero cells were inoculated with 100 µL of 10-fold serial dilutions of viral stocks and incubated at 37 °C for 1 h. After viral inoculation, medium containing ZIKV particles was removed and 1 ml overlay containing 0.6% molecular biology grade agarose (Agarose Unlimited, Alachua, FL, USA) in Modified Eagle Medium (Gibco) with 2% FBS. Cells were maintained at 37°C in 5% CO2 for 4 days. On day 5, cells were fixed with 4% paraformaldehyde solution in PBS and stained with 1% crystal violet solution in 20% methanol in water. Viral plaques were photographed using a CanonScan 9950F scanner and each plaque was counted as a plaque-forming unit (PFU). Viral titer was calculated as PFU/[volume virus (mL) × (dilution factor)].
Total mRNA was isolated with TRIzol Reagent (Thermo Fisher Scientific) and RNeasy Mini Kit (QIAGEN Inc., Valencia, CA, USA) following the manufacturer’s recommendations. Two real-time RT-PCR methods were used for the current studies. First, SYBR Green-based RT-PCR assay was used to determine intracellular ZIKV RNA in Vero cells. For this assay, reverse transcription was performed using Verso cDNA synthesis Kit (Thermo Fisher Scientific) and 1 µg of total RNA in a 15-µL final volume. The RT-PCR analyses were performed using 7.5-µL SYBR Green PCR Master Mix (Thermo Fisher Scientific) with 0.5-µL cDNA, 1.5-µL H2O, 5.5-µL oligonucleotide primer pairs at 10 µM. Primers used were ZIKV RNA: forward sequence 5-[…]-3, reverse sequence 5-[…]-3; GAPDH: forward sequence 5-[…]-3, reverse sequence 5-GGCTGT […] GG-3. PCR program: 1, 50°C for 2 min; 2, 95°C for 2 min; 3, 95°C for 15 s; 4, specific annealing temperature for 15 s; 5, 72°C for 1 min. Steps 2–4 were repeated 40 times. All samples were amplified in triplicate for analysis. Relative ZIKV RNA levels were determined and standardized with a GAPDH internal control using comparative ΔΔCT method ([35]). Second, TaqMan-based RT-PCR assay was used to determine intracellular ZIKV RNA and other gene expressions in Figures 3–6 and extracellular ZIKV RNA in Figure 3. […] Relative ZIKV mRNA levels were determined and standardized with a GAPDH or 18-s rRNA endogenous control using comparative ΔΔCT method ([35]). All reference genes, including GAPDH, β-actin, and 18-s rRNA, detected identical changes of genes (Figure S1 in Supplementary Material). […] Quantitative genomic RNA from ZIKV (NR-1838DQ, ATCC) was used as a standard to calculate viral copies. […]
Figure 4 Antimicrobial peptides treatment post-infection is still effective in inhibiting Zika virus (ZIKV) infection. […] (B–D) At 24-h post-antimicrobial peptide treatment, RNA was isolated from cells and ZIKV RNA was determined through real-time RT-PCR. […]

SMILES | Zika virions after post-infection treatment (plaque-forming assay) | ZIKV RNA after post-infection treatment, compared with untreated ZIKV group
CC[C@H](C)[C@H](NC(=O)[C@H](CCCCN)NC(=O)[C@H](CCCCN)NC(=O)[C@H](Cc1ccccc1)NC(=O)[C@H](CC(C)C)NC(=O)[C@H](CCCCN)NC(=O)[C@H](CCCCN)NC(=O)[C@H](Cc1ccccc1)NC(=O)[C@H](CCCCN)NC(=O)[C@H](CCCCN)NC(=O)[C@H](CCCNC(=N)N)NC(=O)[C@H](Cc1ccccc1)NC(=O)[C@H](CCCNC(=N)N)NC(=O)[C@H](CCCCN)NC(=O)[C@H](Cc1ccccc1)NC(=O)[C@H](CCCNC(=N)N)NC(=O)CN)C(=O)N[C@@H](CO)C(=O)O [BMAP-18] (H-GRFKRFRKKFKKLFKKIS-OH; N-terminus and C-terminus assumed) | fewer virions | trended downward; however, the difference was not significant
CC[C@H](C)[C@H](NC(=O)[C@H](CCCNC(=N)N)NC(=O)[C@H](CCC(N)=O)NC(=O)[C@@H](NC(=O)[C@@H](NC(=O)[C@H](CCCNC(=N)N)NC(=O)[C@H](CCCCN)NC(=O)[C@H](Cc1ccccc1)NC(=O)CN)[C@@H](C)CC)C(C)C)C(=O)N[C@@H](CCCCN)C(=O)N[C@@H](CC(=O)O)C(=O)N[C@@H](Cc1ccccc1)C(=O)N[C@@H](CC(C)C)C(=O)N[C@@H](CCCNC(=N)N)C(=O)N[C@@H](CC(N)=O)C(=O)N[C@@H](CC(C)C)C(=O)N[C@H](C(N)=O)C(C)C [GF-17] (H-GFKRIVQRIKDFLRNLV-NH2; N-terminus and C-terminus assumed) | fewer virions | significantly decreased ZIKV RNA
